Assay results as given in patent US20260034120A1, “TREATING CANCER WITH LONG-ACTING TOPOISOMERASE I INHIBITOR” (priority 2022, published 2026).

Legend:
[1] = tested on: 22Rv1 ATM KO xenografts; test: PLX038A, TLZ and combination in 22Rv1 ATM KO xenografts; format: in vivo
[2] = tested on: MX-1 xenografts; test: PLX038A, TLZ and combination in MX-1 xenografts; format: in vivo, mice; conditions: PLX038A 15 μmol/kg, TLZ 0.4 μmol/kg/day
Text: When tumors reached 170 mm^3, mice received a single intraperitoneal dose of vehicle, a single intraperitoneal dose of PLX038A (15 μmol/kg), a daily oral dose of talazoparib (0.4 μmol/kg) or a combination of PLX038A (15 μmol/kg) and daily oral TLZ (0.4 μmol/kg) starting on either day 0 (same day as PLX038A dosing) or day 4.

[3] = cited from earlier work; for t½: humans, PLX038 prodrug and SN-38 released from it
[4] = tested on: metastatic breast cancer with pathogenic germline ATM mutation; test: PLX038 and rucaparib in a patient with ATM deficient breast cancer (NCT04209595); format: in vivo, human; conditions: single-agent low-dose PLX038 after rucaparib suspension at 4 months
Procedure: A patient with metastatic breast cancer and germline ATM mutation was enrolled in the ongoing dose escalation phase of the trial. […] The patient was initially diagnosed with locally advanced invasive ductal carcinoma and was treated with neoadjuvant chemotherapy followed by surgery and radiation. Nine years later, they developed metastatic disease expressing estrogen and progesterone receptors, and was treated with multiple anti-endocrine therapies and chemotherapies including eribulin, abraxane, and carboplatin. […] At enrolment, they had skin lesions on the breast which were painful and pruritic and in addition had involvement of the lung and bones. […] The mutation results from a C to T substitution at nucleotide position 5908 and creates a premature translational stop signal which is expected to result in an absence or disrupted ATM protein. The variant was not present in population databases such as ExaC but has been reported in the literature in individuals with ataxia-telangiectasia and recognized as a founder mutation in the Costa Rican population.

| Compound | T/C3 wk ([1]; PLX038A 1.9 μmol/kg, TLZ 0.2 μmol/kg/day) | T/C3 wk ([1]; PLX038A 1.95 μmol/kg, TLZ 0.3 μmol/kg/day) | T/C3 wk ([1]; PLX038A 3.75 μmol/kg, TLZ 0.2 μmol/kg/day) | T/C3 wk ([1]; PLX038A 3.75 μmol/kg, TLZ 0.3 μmol/kg/day) | T/C3 wk ([1]; PLX038A 7.5 μmol/kg, TLZ 0.4 μmol/kg/day) | inhibition of tumor growth ([1]; TLZ QD PO 0.2 μmol/kg) | inhibition of tumor growth ([1]; TLZ QD PO 0.4 μmol/kg) | T/C3 wk [2] | t½ [3] | duration of sustained suppression of the tumor after treatment initiation [4] [months] | half-life ([3]; SN-38 formed from CPT-11) [h] |
| --- | --- | --- | --- | --- | --- | --- | --- | --- | --- | --- | --- |
| Cn1ncnc1[C@H]1c2n[nH]c(=O)c3cc(F)cc(c23)N[C@@H]1c1ccc(F)cc1 [TLZ, talazoparib] | 0.76 | 0.69 | 0.76 | 0.69 | 0.72 | insignificantly inhibitory | modestly inhibitory | 0.21 | – | – | – |
| O-[7-(tetra-polyethylene glycol ether)-carboxamido-1-cyano-2-heptyl]-N-(10′-methoxy-7′-ethyl-camptothecin)-N-[4′-(diethylcarbamoyl)phenyl)]carbamate [PLX038] | – | – | – | – | – | – | – | – | about 5 days | 12 | – |
| CCc1c2c(nc3ccc(O)cc13)-c1cc3c(c(=O)n1C2)COC(=O)[C@]3(O)CC [SN-38] | – | – | – | – | – | – | – | – | about 5 days | – | ~12 |
